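Assay format: 96-well plates, 48-hour exposure. The concentration for 50% growth inhibition is given as GI50. TGI marks complete inhibition of growth.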
These compounds were tested on MDA-MB-468 breast (assay: NCI anticancer screen, dose series, 48 h).

Structure (SMILES)	GI50 [µM]	TGI [µM]
CCCCS(=O)c1sc2nc(-c3cccs3)cc(-c3ccccc3)c2c1N (stereo unspecified)	9.93	67.3
Cc1cnc(C(=O)NNc2nc3sc4c(c3c(=O)[nH]2)C(C)CCC4)cn1 (stereo unspecified)	1.81	6.08
CCNC(=O)N1CCc2cc(OC)c(OCCc3ccc(OC)cc3)cc2C1c1ccc(Cl)cc1C (stereo unspecified)	2.01	6.43
CCCCCC(=O)O[C@]1(C(C)=O)CCC2C3CCC4=CC(=O)CC[C@]4(C)C3CC[C@@]21C (stereo partly specified)	1.73	6.79
COc1ccc(-c2nc3ccc(Cc4ccc5nc(-c6ccc(OC)cc6)[nH]c5c4)cc3[nH]2)cc1	0.026	0.155
CC(=O)Oc1ccc(C2=Cc3ccc(OC(C)=O)cc3OC2C)cc1 (stereo unspecified)	5.96	51.4
Cn1ccnc1C(=O)/C=C/C=C/c1ccc(C(=O)Nc2ccc(F)cc2)cc1	1.51	10.5
Nc1nccc(-c2c(-c3ccc(F)cc3)nn3cc(C(F)(F)F)ccc23)n1	> 25	> 25
COc1ccccc1C1c2cc3c(cc2OC2(OC)COC(=O)C12)OCO3 (stereo unspecified)	20.2	95.4
CN1CCN(c2c(F)cc(NC3=C(Cl)C(=O)c4ncccc4C3=O)cc2F)CC1	1.36	3.21
COc1ccc(-c2cc(/C=C/C(=O)c3ccc(N)cc3)[nH]n2)cc1OC	1.55	3.48
COc1ccc(-c2[nH]c3ccc(OC)cc3c2C=C(C#N)C#N)cc1	0.494	> 100
COc1ccccc1Oc1nccc(-c2c(-c3ccc(F)cc3)ncn2C2CCNCC2)n1	3.17	14.3
CCSCC1CC(O)(c2ccccc2)C(c2ccccc2)C(c2ccc(F)cc2)O1 (stereo unspecified)	2.94	10.4
CCN(CC)c1ccc2nc3ccc(=[N+](CC)CC)cc-3oc2c1	0.0631	0.231
Fc1ccc(NC(c2ccc(F)cc2)C2CCN(CCCCc3ccccc3)CC2)cc1 (stereo unspecified)	1.72	3.43
CCc1ccc(Nc2cc(C)c3ccc(O)cc3n2)cc1	3.57	12.8
COc1cc(/C=C/c2cc(/C=C/c3ccc(O)c(OC)c3)n(C(=O)c3ccccc3Br)n2)ccc1O	2.24	5.81
S=C1SCN(Cc2ccccc2)CN1Cc1ccco1	1.04	13.5
O=C1c2cc3c(cc2-c2c1c1ccc(Cl)cc1c(=O)n2C[C@H](O)CO)OCO3	0.0174	0.0553
CCCCCCCCCCCCCCNC(=O)Nc1ccc(Cl)c(Cl)c1	2.82	9.82
CC(=O)NC1C(O[C@H]2C[C@H]3[C@@H]4CC=C5C[C@@H](O)CC[C@]5(C)[C@H]4CC[C@]3(C)[C@H]2[C@H](C)C(=O)CCC(C)C)OCC(O)C1O (stereo partly specified)	3.34	10.4

Structure (SMILES)	GI50 [µM]	TGI [µM]
COc1ccc(/C=C2\CCC/C(=C\c3ccc(OC)c(OC)c3)C2=O)cc1OC	0.94	5.47
CC(C)[C@@H]1CC[C@]2(CO2)[C@@H]2C(=O)OCC(C(=O)O)=C[C@H]21	0.443	> 27.2
COc1ccc2c(c1)c(/C=N/Nc1ccnc3cc(Cl)ccc13)cn2C	0.217	0.456
COc1cc(-c2nccc3[nH]c(-c4ccc5cc[nH]c5c4)nc23)cc(OC)c1OC	0.0176	1.56
COc1ccccc1CNCCN1C(=O)c2ccc3c4c(ccc(c24)C1=O)C(=O)N(CCNCc1ccccc1OC)C3=O	0.426	0.893
CNCc1ccc(-c2cc(-c3nc(-c4ccc(S(=O)(=O)C(C)C)cc4)cnc3N)on2)cc1	2.26	20.3
Cc1cc(Cl)nc(N(CCNc2ccnc3cc(Cl)ccc23)Cc2ccco2)n1	1.62	3.46
Clc1ccc2oc3c(NCCCn4ccnc4)c4ccccc4nc3c2c1	14.7	69.2
CCC(c1ccccc1)c1noc(CCN(CC)CC)n1 (stereo unspecified)	2.46	8.05
CC[C@H](C)[C@H](NC(=O)[C@H]1CCCCN1C)C(=O)N(C)[C@H](C[C@@H](OC(C)=O)c1nc(C(=O)NC23CC(C(=O)OC)(C2)C3)cs1)C(C)C	0.000292	0.0714
COCCN(Cc1ccc(F)cc1)c1ccc(CO)c(Cl)c1	0.0406	0.163
O=C(COc1ccc(/C=C2\Oc3ccccc3C2=O)cc1)Nc1nc2ccccc2s1	0.487	75.2
O=C(Nc1ccc(OC(F)(F)Cl)cc1)c1cnc(N2CC[C@@H](O)C2)c(-c2ccn[nH]2)c1	4.89	23.1
ClCCOCCn1cnc2c(Cl)nc(Cl)nc21	3.16	25
Cc1cc(Br)c(NC(=O)c2c(-c3c(Cl)cccc3Cl)noc2C)c(Br)c1	> 100	> 100
COc1cc2nnc3c4cccnc4[nH]c3c2cc1OC	0.225	1.22
Cc1cccc(Cn2cc(CO)c3cnccc32)c1	6.34	43.3
COCCOC1=C(Cl)C(=O)c2ccccc2C1=O	1.59	3.22
COc1ccc(C(O)c2cc3c(N)c(C(=O)Nc4cccc5ccccc45)sc3nc2C)cc1 (stereo unspecified)	2.64	> 100
Nc1nc(=S)c2ncn(C3OC(COP(=O)(O)O)C(O)C3O)c2[nH]1 (stereo unspecified)	0.478	6.3
C#Cc1ccc(-n2c(/C=C/c3ccc(O)cc3)nc3ncccc3c2=O)cc1	2.31	7.08
